Legend:
[1] = In vivo mouse PK, oral administration (FIG. 1); design: species or system male C57Bl mice; settings: orally administered, 60 μmol/kg in 1% Methocel A4C vehicle
Source text: Various embodiments of the invention will now be described by way of illustration only with reference to the following Examples and FIG. 1 which depicts plasma concentration against time for male C57Bl mice orally administered a compound of the invention or a compound of the prior art.

[2] = reference markers for the permeability assay; cited from earlier work
[3] = Metabolic stability in whole blood; assay type: in vitro ADME; settings: worked out from whole blood CLint
Procedure: Compounds of the invention and the indicated comparative examples were tested for metabolic stability in a cytosol assay in which the compounds were incubated with commercially available human hepatic cytosol fractions and the disappearance of the compound monitored by HPLC or LC/MS. Pooled human liver cytosol fractions are less likely to represent outlier individuals than blood from a single individual and can be stored frozen, unlike whole blood. The cytosol assay thus provides a consistent assay testbed as a guide to the stability of a compound in the in vivo environment, such as when exposed to whole blood.
In short, test compounds (2 μM) are incubated in pooled human liver cytosol (Xenotech LLC Lenexa US, 1 mg/mL protein in 0.1 M phosphate buffer, pH 7.4) at 37° centigrade over a one hour period. The incubations are initiated by the addition of 1 mM NADPH co-factor. Timed sub-samples were taken at 0, 20, 40 and 60 minutes and “crash precipitated” by the addition of 3 volumes of ice-cold acetonitrile. The samples were centrifuged at reduced temperature and the supernatants were separated and analyzed by LC-MS-MS.
Alternatively, an analogous stability assay is carried out in human or monkey whole blood and/or commercially available liver microsomes, such as XEN 025.

Compound | % absorption in man [2] [%] | also measured
C#C[C@@H]1CN(C(=O)[C@H](CC(C)C)NC(=O)c2ccc(-c3nc(N4CCN(C)CC4)sc3F)cc2)[C@@H]2C(=O)CO[C@H]12 [Example 2, N-[1-6-(ethynyl-3-oxo-hexahydro-furo[3,2-b]pyrrole-4-carbonyl)-3-methyl-butyl]-4-[5-fluoro-2-(4-methyl-piperazin-1-yl)thiazol-4-yl]-benzamide] |  | in vivo exposure (Cmax or AUC) compared with the prior art compound [1]: very much greater
N[C@@H](Cc1ccccc1)C(=O)O [L-Phenylalanine] | 100 | 
OC[C@@H](O)[C@@H](O)[C@H](O)[C@H](O)CO [Mannitol] | 16 | 
CN(Cc1cnc2nc(N)nc(N)c2n1)c1ccc(C(=O)N[C@@H](CCC(=O)O)C(=O)O)cc1 [Methotrexate] | 20 | 
CC(C)C[C@H](NC(=O)c1ccc(-c2csc(N3CCN(C)CC3)n2)cc1)C(=O)N1C[C@@H](C)[C@H]2OCC(=O)[C@H]21 [comparative example] |  | estimated / calculated whole blood half life [3]: little over an hour
